Among the data in patent US12448409B2, “Oxysterols and methods of use thereof” (priority 2016, dated 2025) are activation values, retold here.

In one assay the target is T1, GlunN1/GluN2A glutamate receptors (Homo sapiens, UniProt Q05586+Q12879).
T1 construct: expressed in transfected cells
T1 sequence (Q12879 23-1464, other chains not shown): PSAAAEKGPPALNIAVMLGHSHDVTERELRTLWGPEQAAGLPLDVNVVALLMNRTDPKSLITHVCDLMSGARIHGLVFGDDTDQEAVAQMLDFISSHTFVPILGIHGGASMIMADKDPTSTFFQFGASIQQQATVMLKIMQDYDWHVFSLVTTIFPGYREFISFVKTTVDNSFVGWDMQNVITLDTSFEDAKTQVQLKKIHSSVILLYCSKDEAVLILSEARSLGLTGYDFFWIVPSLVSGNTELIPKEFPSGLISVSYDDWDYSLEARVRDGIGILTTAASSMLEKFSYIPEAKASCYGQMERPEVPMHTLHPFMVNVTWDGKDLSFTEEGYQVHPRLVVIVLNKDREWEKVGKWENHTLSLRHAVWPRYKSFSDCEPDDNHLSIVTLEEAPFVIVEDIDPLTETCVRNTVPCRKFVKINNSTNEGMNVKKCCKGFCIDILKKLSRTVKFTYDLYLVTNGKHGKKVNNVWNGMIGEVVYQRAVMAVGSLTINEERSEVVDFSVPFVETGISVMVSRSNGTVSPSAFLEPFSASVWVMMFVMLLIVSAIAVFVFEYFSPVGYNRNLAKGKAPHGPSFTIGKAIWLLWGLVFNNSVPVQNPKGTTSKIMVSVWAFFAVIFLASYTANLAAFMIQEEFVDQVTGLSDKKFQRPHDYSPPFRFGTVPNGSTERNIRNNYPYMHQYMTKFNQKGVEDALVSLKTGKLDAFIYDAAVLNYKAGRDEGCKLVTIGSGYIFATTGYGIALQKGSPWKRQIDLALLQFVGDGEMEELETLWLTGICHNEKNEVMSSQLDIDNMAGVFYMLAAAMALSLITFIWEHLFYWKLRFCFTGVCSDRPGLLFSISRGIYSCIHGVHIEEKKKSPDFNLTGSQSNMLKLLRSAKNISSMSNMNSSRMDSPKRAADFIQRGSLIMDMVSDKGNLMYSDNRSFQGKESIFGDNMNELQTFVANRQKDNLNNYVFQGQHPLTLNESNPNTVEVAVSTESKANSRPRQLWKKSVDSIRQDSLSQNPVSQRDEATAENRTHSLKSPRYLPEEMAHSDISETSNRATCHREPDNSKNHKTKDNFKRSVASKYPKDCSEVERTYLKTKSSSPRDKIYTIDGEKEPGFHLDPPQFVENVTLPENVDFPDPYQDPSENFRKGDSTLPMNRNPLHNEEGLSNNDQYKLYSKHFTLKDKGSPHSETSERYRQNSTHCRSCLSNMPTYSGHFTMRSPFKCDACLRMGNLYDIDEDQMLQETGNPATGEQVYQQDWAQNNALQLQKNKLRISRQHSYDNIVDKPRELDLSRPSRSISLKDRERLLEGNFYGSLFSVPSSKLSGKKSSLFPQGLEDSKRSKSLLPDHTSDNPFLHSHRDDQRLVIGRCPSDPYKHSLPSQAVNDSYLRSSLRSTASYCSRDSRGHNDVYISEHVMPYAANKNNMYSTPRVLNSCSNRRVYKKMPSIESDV
Kind of assay: cell-based. To be noted: 3 μM test article; HEK293 cells expressing human GRIN1/GRIN2A; co-application with EC20 L-glutamate and 30 μM glycine; read-out: GluN2A PCA IWB Ephys % potentiation at 3 μM. The protocol:
NMDA potentiation was assessed using the whole cell patch clamp of mammalian cells which expressed NMDA receptors.
Whole-Cell Patch Clamp of Mammalian Cells (Ionworks Barracuda (IWB)
The whole-cell patch-clamp technique was used to investigate the effects of compounds on GlunN1/GluN2A glutamate receptors expressed in mammalian cells.
HEK293 cells were transformed with adenovirus 5 DNA and transfected with cDNA encoding the human GRIN1/GRIN2A genes. Stable transfectants were selected using G418 and Zeocin-resistance genes incorporated into the expression plasmid and selection pressure maintained with G418 and Zeocin in the medium. Cells were cultured in Dulbecco's Modified Eagle Medium/Nutrient Mixture (D-MEM/F-12) supplemented with 10% fetal bovine serum, 100 μg/ml penicillin G sodium, 100 μg/ml streptomycin sulphate, 100 μg/ml Zeocin, 5 μg/ml blasticidin and 500 μg/ml G418.
Test article effects were evaluated in 8-point concentration-response format (4 replicate wells/concentration). All test and control solutions contained 0.3% DMSO and 0.01% Kolliphor® EL (C5135, Sigma). The test article formulations were loaded in a 384-well compound plate using an automated liquid handling system (SciClone ALH3000, Caliper LifeScienses). The measurements were perfomed using Ion Works Barracuda platform following this procedure:
Electrophysiological Procedures:
• a) Intracellular solution (mM): 50 mM CsCl, 90 mM CsF, 2 mM MgCl2, 5 mM EGTA, 10 mM HEPES. Adjust to pH 7.2 with CsOH. • b) Extracellular solution, HB-PS (composition in mM): NaCl, 137; KCl, 1.0; CaCl2, 5; HEPES, 10; Glucose, 10; pH adjusted to 7.4 with NaOH (refrigerated until use). • c) Holding potential: −70 mV, potential during agonist/PAM application: −40 mV. Recording procedure: • a) Extracellular buffer will be loaded into the PPC plate wells (11 μL per well). Cell suspension will be pipetted into the wells (9 μL per well) of the PPC planar electrode. • b) Whole-cell recording configuration will be established via patch perforation with membrane currents recorded by on-board patch clamp amplifiers. • c) Two recordings (scans) will be performed. First, during pre-application of test article alone (duration of pre-application—5 min) and second, during test articles and agonist (EC20 L-glutamate and 30 μM glycine) co-application to detect positive modulatory effects of the test article.
Test Article Administration: The first pre-application will consist of the addition of 20 μL of 2× concentrated test article solution and, second, of 20 μL of 1× concentrated test article and agonist at 10 μL/s (2 second total application time).
On to `C[C@H](CCC1(O)CCC(F)(F)CC1)[C@H]1CC[C@H]2[C@@H]3CC=C4C[C@@](C)(O)CC[C@]4(C)[C@H]3CC[C@]12C` [Compound 1], for which the activation at 3 µM was above 150%. Still for that read-out and setting: with `C[C@H](CCC1(O)CCCCC1)[C@H]1CC[C@H]2[C@@H]3CC=C4C[C@@](C)(O)CC[C@]4(C)[C@H]3CC[C@]12C` [Compound 2] the figure was above 150%. In the case of `C[C@H](CCC1(O)CCCC1)[C@H]1CC[C@H]2[C@@H]3CC=C4C[C@@](C)(O)CC[C@]4(C)[C@H]3CC[C@]12C` [Compound 3], the activation at 3 µM is above 150%. The same measure, in the same setting: under `C[C@H](CCC1(O)CCC1)[C@H]1CC[C@H]2[C@@H]3CC=C4C[C@@](C)(O)CC[C@]4(C)[C@H]3CC[C@]12C` [Compound 4] stands 100 to 150%; under `C[C@H](CC[C@]1(O)CCOC1)[C@H]1CC[C@H]2[C@@H]3CC=C4C[C@@](C)(O)CC[C@]4(C)[C@H]3CC[C@]12C` [Compound 5-A], 100 to 150%; under `C[C@H](CC[C@@]1(O)CCOC1)[C@H]1CC[C@H]2[C@@H]3CC=C4C[C@@](C)(O)CC[C@]4(C)[C@H]3CC[C@]12C` [Compound 5-B], above 150%. The same measure, in the same setting: under `C[C@H](CCC1(O)CCOC1)[C@H]1CC[C@H]2[C@@H]3CC=C4C[C@@](C)(O)CC[C@]4(C)[C@H]3CC[C@]12C` (some centres unmarked) [Compound 5] stands above 150%; under `C[C@H](CCC1(O)CCOCC1)[C@H]1CC[C@H]2[C@@H]3CC=C4C[C@@](C)(O)CC[C@]4(C)[C@H]3CC[C@]12C` [Compound 6], 100 to 150%. As to `C[C@H](CCC1(O)CCN(C)CC1)[C@H]1CC[C@H]2[C@@H]3CC=C4C[C@@](C)(O)CC[C@]4(C)[C@H]3CC[C@]12C` [Compound 8], the activation at 3 µM was 10 to 100%. On the same count and under the same terms, under `CC(=O)N1CCC(O)(CC[C@@H](C)[C@H]2CC[C@H]3[C@@H]4CC=C5C[C@@](C)(O)CC[C@]5(C)[C@H]4CC[C@]23C)CC1` [Compound 9] stands above 150%; under `C[C@H](CCC1(O)CCCOC1)[C@H]1CC[C@H]2[C@@H]3CC=C4C[C@@](C)(O)CC[C@]4(C)[C@H]3CC[C@]12C` (some centres unmarked) [Compound 11], above 150%; under `CC[C@]1(O)CC[C@@]2(C)C(=CC[C@H]3[C@@H]4CC[C@H]([C@H](C)CCC5(O)CCC(F)(F)CC5)[C@@]4(C)CC[C@@H]32)C1` [Compound 12], above 150%. Same read-out and setting: under `CC[C@]1(O)CC[C@@]2(C)C(=CC[C@H]3[C@@H]4CC[C@H]([C@H](C)CCC5(O)CCC(C)(C)CC5)[C@@]4(C)CC[C@@H]32)C1` [Compound 13] stands 10 to 100%; under `CC[C@]1(O)CC[C@@]2(C)C(=CC[C@H]3[C@@H]4CC[C@H]([C@H](C)CCC5(O)CCOCC5)[C@@]4(C)CC[C@@H]32)C1` [Compound 14], above 150%.

As for `CC[C@]1(O)CC[C@@]2(C)C(=CC[C@H]3[C@@H]4CC[C@H]([C@H](C)CCC5(O)CCCOC5)[C@@]4(C)CC[C@@H]32)C1` (some centres unmarked) [Compound 15], the activation at 3 µM is above 150%. The same measure, in the same setting: with `C[C@H](CCC1(O)CCC(F)(F)CC1)[C@H]1CC[C@H]2[C@@H]3CC[C@H]4C[C@@](C)(O)CC[C@]4(C)[C@H]3CC[C@]12C` [Compound 16] the figure was 10 to 100%; with `C[C@H](CC[C@]1(O)CCOC1)[C@H]1CC[C@H]2[C@@H]3CC[C@H]4C[C@@](C)(O)CC[C@]4(C)[C@H]3CC[C@]12C` [Compound 17], above 150%; with `C[C@H](CCC1(O)CCOCC1)[C@H]1CC[C@H]2[C@@H]3CC[C@H]4C[C@@](C)(O)CC[C@]4(C)[C@H]3CC[C@]12C` [Compound 18], above 150%. Take `C[C@H](CCC1(O)CCCOC1)[C@H]1CC[C@H]2[C@@H]3CC[C@H]4C[C@@](C)(O)CC[C@]4(C)[C@H]3CC[C@]12C` (some centres unmarked) [Compound 19]: the activation at 3 µM was above 150%. On the same count and under the same terms, with `C[C@H](CCC1(O)CCC(C)(C)CC1)[C@H]1CC[C@H]2[C@@H]3CC[C@H]4C[C@@](C)(O)CC[C@]4(C)[C@H]3CC[C@]12C` [Compound 20] the figure was 10 to 100%. Still for that read-out and setting: with `CC[C@]1(O)CC[C@@]2(C)[C@@H](CC[C@@H]3[C@@H]2CC[C@]2(C)[C@@H]([C@H](C)CCC4(O)CCC(F)(F)CC4)CC[C@@H]32)C1` [Compound 21] the figure was above 150%. On the same count and under the same terms, under `CC[C@]1(O)CC[C@@]2(C)[C@@H](CC[C@@H]3[C@@H]2CC[C@]2(C)[C@@H]([C@H](C)CCC4(O)CCC(C)(C)CC4)CC[C@@H]32)C1` [Compound 22] stands 10 to 100%. `CC[C@]1(O)CC[C@@]2(C)[C@@H](CC[C@@H]3[C@@H]2CC[C@]2(C)[C@@H]([C@H](C)CCC4(O)CCOCC4)CC[C@@H]32)C1` [Compound 23]: the activation at 3 µM was above 150%.

Turning to `CC[C@]1(O)CC[C@@]2(C)[C@@H](CC[C@@H]3[C@@H]2CC[C@]2(C)[C@@H]([C@H](C)CCC4(O)CCCOC4)CC[C@@H]32)C1` (some centres unmarked) [Compound 24], the activation at 3 µM was above 150%.

The assay is the same for the next values; noted with them: HEK293, read-out: GluN2A PCA IWB Ephys % potentiation at 3 μM.
Consider `C[C@H](CCC1(O)CCNCC1)[C@H]1CC[C@H]2[C@@H]3CC=C4C[C@@](C)(O)CC[C@]4(C)[C@H]3CC[C@]12C` [Compound 7], for which the activation at 3 µM was in the range of 100 to 150%.

Turning to `C[C@H](CCC1(O)CCC(C)(C)CC1)[C@H]1CC[C@H]2[C@@H]3CC=C4C[C@@](C)(O)CC[C@]4(C)[C@H]3CC[C@]12C` [Compound 10], the activation at 3 µM lay within 10 to 100%.
